What was measured:
CB = tested on: T1, CB; test: 4-nitrophenol release, absorbance at […] nm; type: biochemical, uncultured archaeon; settings: 10 mM NaPO4 pH 7.0, 80°C (standard assay); read-out: Substrate, 4-NP-β-D-GP / KM
T1 construct: gene bgl1; single-polypeptide fusion HIS-Cel5A-Bgl1-STREP, Ser-Ser linker, tags kept; from E. coli M15[pREP4]; truncated STREP-tagged Bgl1 degradation products remain in eluate; with Endoglucanase

BC = tested on: T2, BC; test: 4-nitrophenol release, absorbance at […] nm; type: biochemical, uncultured archaeon; settings: 10 mM NaPO4 pH 7.0, 80°C (standard assay); read-out: Substrate, 4-NP-β-D-GP / KM
T2 construct: gene bgl1; single-polypeptide fusion HIS-Bgl1-Cel5A-STREP, Ser-Ser linker, tags kept; from E. coli M15[pREP4]; with Endoglucanase

Km (CB): 530 µM
Km (BC): 530 µM
Compound: O=[N+]([O-])c1ccc(O[C@@H]2O[C@H](CO)[C@@H](O)[C@H](O)[C@H]2O)cc1 [4-NP-β-D-GP, 4-nitrophenyl-β-D-glucopyranoside]

From article PMC4460186, “Fast and reliable production, purification and characterization of heat-stable, bifunctional enzyme chimeras” (AMB Express, 2015)
